Measurements reported in US6096732A, “Steroid esters, process for their production and their pharmaceutical use” (Schering AG, priority 1996, dated 2000).

What was measured:
[1] = type: physicochemical
Experimental: Solubility Studies of the Esters that are Mentioned in Examples 1 to 6
In the following table, the solubility of compounds 1 to 6 is depicted in comparison to unesterified reference compound 1 (Z)-6'-(4-cyanophenyl)-9,11α-dihydro-17β-hydroxy-17α-(3-hydroxy-1-propenyl)-4'H-naphtho[3',2',1':10,9,11]estra-4-en-3-one (Example 1 in DE-A 4216003). For solubility, the temperature is indicated in °C., in which 50 mg of substance is dissolved in 1 ml of a 1:4 benzyl benzoate/castor oil mixture.

[2] = type: physicochemical; remark: listed apart in the source
Experimental: Studies on Hydrolytic Stability of the Esters According to the Invention
The hydrolytic stability of the esters under strongly basic conditions can be used to assess whether the compounds have adequate stability under physiological conditions.
In each case, 10 mg of compounds 1, 3 and 4 was dissolved at 23° C. in 10 ml of dioxane and mixed with 1 ml of a 1N aqueous sodium hydroxide solution. In each case, 11 samples were drawn, acidified to pH 6 and the ester:alcohol ratio was determined per HPLC. In the graphic visualization,the portion of ester is depicted in percent as a function of the saponification period in hours.

[3] = system: NMU-induced breast tumor of rats; assay: Influence of the tumor growth in N-Methyl-N-nitrosourea (NMU) model in rats; type: in vivo, rat (Sprague-Dawley); conditions: p.o., 6 times per week, various dosages; vs. reference compound 3
Experimental: Influence of the Tumor Growth in N-Methyl-N-nitrosourea (NMU)--Model in Rats
The growth of the NUM-induced breast tumor of rats is largely dependent on estrogens and gestagens and less on prolactin. Estrogen and progesterone antagonists result in inhibiting tumor growth.
Female rats (Sprague-Dawley), 55 (±3) days old; at least 9 animals per group.
The animals receive 50 mg/kg of NMU on a one-time basis. Then, the animals are checked once a week by palpation for tumor development. About 6 to 8 weeks after NMU treatment, one or more tumors develop per animal. At a minimum size of 150 mm^2 /tumor/animal, treatment (6 times per week) begins with the test substance, the determination of body weight and tumor size (with the aid of a sliding gauge; once per week).
The results for compound 1 are graphically depicted in the following figures for various dosages in each case in comparison to the untreated control, an ovariectomy group as well as reference compound 3, (Z)-6'-(4-cyanophenyl)-9,11α-dihydro-17β-hydroxy-17α-[3-(1-oxo-2-methylpropoxy)-1-propenyl]-4'H-naphtho[3',2',1':10,9,11]estr-4-en-3-one. […] This is surprising because of the only slight structural differences. [drawing 5] Tumor-Inhibiting Action on the Hormone-Sensitive Human Breast Cancer Cell Line ZR-75.

[4] = system: human, tamoxifen-resistant ZR-75 breast cancer; assay: Tumor-inhibiting action on human, tamoxifen-resistant ZR-75 breast cancer in nude mice; type: in vivo; conditions: s.c., 8 weeks, vs. untreated control; graph only
Experimental: Breast cancer cell line ZR-75 is an estrogen- and progesterone receptor-positive human line, which can be transplanted serially in the thymic aplastic nude mouse. […] An underline that is used here developed a tamoxifen resistance after a prolonged treatment period.
Female nude/nude mice, 4 weeks old.
Formulation and Administration of Test Substances:
The test substances are dissolved in benzyl benzoate and castor oil (1+4), and the one-time dose is administered at a volume of 0.1 ml s.c. Treatment begins about 7 weeks after implantation (treatment of established tumors). The treatment time is at most 10 weeks.
The tumor fragments of several donor animals are implanted in the animals s.c. on both sides in the flanks. On the day of implantation and on day 60, all animals are implanted with a tamoxifen-releasing pellet (5 mg).
The mice are randomized 7 weeks after implantation of the tumors, and the treatment is begun and carried out for 8 weeks.
Tumor growth is determined by determination of the tumor surface area using a sliding gauge. The tumor surface area is calculated from the product of the longest diameter of the tumor and the diameter that is perpendicular to said longest diameter. At the end of the test, the animals are killed, the tumors are prepared outside and weighed.

[5] = system: breast cancer cell line ZR-75; conditions: standard treatment; cited from earlier work

SMILES | Solubility (temperature at which 50 mg of substance is dissolved in 1 ml) [1] [°C] | stability compared to reference compound 3 [2] | stability under strongly basic conditions [2] | also measured
CC(C)C(=O)OC/C=C\[C@]1(O)C=C[C@H]2[C@@H]3CCC4=CC(=O)CC[C@@]45Cc4cc(-c6ccc(C#N)cc6)ccc4[C@@H](C[C@@]21C)[C@@H]35 [Compound 6, (Z)-6'-(4-Cyanophenyl)-9,11α-dihydro-17β-hydroxy-17α-[3-(1-oxo-2-methylpropoxy)-1-propenyl]-4'H-naphtho[3',2',1':10,9,11]estra-4,15-dien-3-one] | < 50 |  |  | 
CC(C)CC(=O)OC/C=C\[C@]1(O)CC[C@H]2[C@@H]3CCC4=CC(=O)CC[C@@]45Cc4cc(-c6ccc(C#N)cc6)ccc4[C@@H](C[C@@]21C)[C@@H]35 [Compound 1, (Z)-6'-(4-Cyanophenyl)-9,11α-dihydro-17β-hydroxy-17α-[3-(1-oxo-3-methylbutoxy)-1-propenyl]-4'H-naphtho[3',2',1':10,9,11]estr-4-en-3-one] | 50 | significantly improved compared to reference compound 3 | very good stability | tumor-inhibiting action [3]: tumor-inhibiting action that is superior to that of reference compound 3; inhibition of the course of growth of the tumors [4]: inhibition of the course of growth of the tumors
CC(C)C(=O)OCC/C=C\[C@]1(O)CC[C@H]2[C@@H]3CCC4=CC(=O)CC[C@@]45Cc4cc(-c6ccc(C#N)cc6)ccc4[C@@H](C[C@@]21C)[C@@H]35 [Compound 2, (Z)-6'-(4-Cyanophenyl)-9,11α-dihydro-17β-hydroxy-17α-[4-(1-oxo-2-methylpropoxy)-1-butenyl]-4'H-naphtho[3',2',1':10,9,11]estr-4-en-3-one] | 23 |  |  | 
C[C@]12C[C@@H]3c4ccc(-c5ccc(C#N)cc5)cc4C[C@]45CCC(=O)C=C4CC[C@H]([C@H]35)[C@@H]1CC[C@@]2(O)/C=C\CO [Reference Compound 1, (Z)-6'-(4-cyanophenyl)-9,11α-dihydro-17β-hydroxy-17α-(3-hydroxy-1-propenyl)-4'H-naphtho[3',2',1':10,9,11]estra-4-en-3-one, reference compound] | > 100 |  |  | 
CC(C)CC(=O)OC/C=C\[C@]1(O)C=C[C@H]2[C@@H]3CCC4=CC(=O)CC[C@@]45Cc4cc(-c6ccc(C#N)cc6)ccc4[C@@H](C[C@@]21C)[C@@H]35 [Compound 5, (Z)-6'-(4-Cyanophenyl)-9,11α-dihydro-17β-hydroxy-17α-[3-(1-oxo-3-methylbutoxy)-1-propenyl]-4'H-naphtho[3',2',1':10,9,11]estra-4,15-dien-3-one] | 23 |  |  | 
CC(C)C(=O)OC/C=C\[C@]1(O)CC[C@H]2[C@@H]3CCC4=CC(=O)CC[C@@]45Cc4cc(-c6ccc(C#N)cc6)ccc4[C@@H](C[C@@]21C)[C@@H]35 [Reference Compound 3, (Z)-6'-(4-cyanophenyl)-9,11α-dihydro-17β-hydroxy-17α-[3-(1-oxo-2-methylpropoxy)-1-propenyl]-4'H-naphtho[3',2',1':10,9,11]estr-4-en-3-one, reference compound] | 100 |  |  | 
CC/C(=C(\c1ccccc1)c1ccc(OCCN(C)C)cc1)c1ccccc1 [tamoxifen] |  |  |  | response of ZR-75 to tamoxifen [5]: inhibiting growth
CC(C)CC(=O)OCC/C=C\[C@]1(O)CC[C@H]2[C@@H]3CCC4=CC(=O)CC[C@@]45Cc4cc(-c6ccc(C#N)cc6)ccc4[C@@H](C[C@@]21C)[C@@H]35 [Compound 3, (Z)-6'-(4-cyanophenyl)-9,11α-dihydro-17β-hydroxy-17α-[4-(1-oxo-3-methylbutoxy)-1-butenyl]-4'H-naphtho[3',2',1':10,9,11]estr-4-en-3-one] | 23 | significantly improved compared to reference compound 3 | very good stability | 
CC(C)CC(=O)OCC/C=C\[C@]1(O)CC[C@H]2[C@@H]3CCC4=CC(=O)CC[C@@]45Cc4cc(-c6ccc(F)cc6)ccc4[C@@H](C[C@@]21C)[C@@H]35 [Compound 4, (Z)-9,11α-dihydro-6'-(4-fluorophenyl)-17β-hydroxy-17α-[4-(1-oxo-3-methylbutoxy)-1-butenyl]-4'H-naphtho[3',2',1':10,9,11]estr-4-en-3-one] | 50 | significantly improved compared to reference compound 3 | very good stability | 
